According to patent US11932656B1, “Thieno[2,3-d]pyrimidines as COX-2 inhibitors” (KING FAISAL UNIVERSITY, priority 2023, dated 2024):

Experiments:
ovine COX-1 = target: T1, ovine COX-1 (Ovis aries, UniProt P05979); assay: COX (ovine) Inhibitor Screening Assay, COX-1 (EIA of PGF2α); type: biochemical; conditions: Cayman COX inhibitor screening assay kit
T1 construct: purchased Cayman Chemical, USA 560131
T1 sequence (P05979 25-600): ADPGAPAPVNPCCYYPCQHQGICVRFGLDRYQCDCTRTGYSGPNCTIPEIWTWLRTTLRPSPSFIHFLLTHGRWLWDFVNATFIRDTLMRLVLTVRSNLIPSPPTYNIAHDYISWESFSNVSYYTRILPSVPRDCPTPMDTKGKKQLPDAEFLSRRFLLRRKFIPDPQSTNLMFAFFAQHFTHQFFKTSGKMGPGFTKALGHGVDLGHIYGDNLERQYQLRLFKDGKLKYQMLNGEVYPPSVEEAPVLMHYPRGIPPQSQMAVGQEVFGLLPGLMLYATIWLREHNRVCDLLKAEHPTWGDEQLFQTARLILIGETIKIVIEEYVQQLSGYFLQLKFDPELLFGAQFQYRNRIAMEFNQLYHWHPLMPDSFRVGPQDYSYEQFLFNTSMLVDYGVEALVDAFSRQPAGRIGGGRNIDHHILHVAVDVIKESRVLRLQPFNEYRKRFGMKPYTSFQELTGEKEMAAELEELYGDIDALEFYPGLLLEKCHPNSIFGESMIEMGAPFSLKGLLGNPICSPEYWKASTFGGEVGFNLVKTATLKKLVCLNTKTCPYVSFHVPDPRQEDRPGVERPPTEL
Description: (§1) 2-Butanone, ethylcyanoacetate (≥98%), dimethylformamide (≥99.5%), ethanol (≥99%), n-hexane, cyanamide and sulphur (≥99.5%) were bought from Acros Chemical (USA). Diethylamine, sodium sulphate anhydrous and analytical grade NaOH pellets were bought from Fisher Scientific (UK). 1,4-dioxane, concentrated HCl, ethyl acetate, hexane, chloroform, 4-fluorobenzoyl chloride (98%) , 4-methoxyphenyl acetonitrile (≥97%), 4-fluorophenyl acetonitrile (≥99%), and 2-(trifluoromethyl)benzoyl chloride were bought from Aldrich Chemicals. TLC Silica gel 60 F254 was obtained from Merck, USA. COX inhibitor screening assay kit (Item no. 560131) was procured from Cayman Chemical, USA.
(§2) The COX (ovine) Inhibitor Screening Assay was performed mainly to determine the selective inhibition of tested compounds (4a, 4b, 5a, 5b) towards the ovine COX-1 and human recombinant COX-2 isoenzymes. The addition of arachidonic acid (AA) helped to convert the COX component into PGG2, followed by reduction of PGG2 into PGH2. The following addition of SnCl2 converted PGH2 into PGF2α. The assay directly measures the PGF2α0 via enzyme immunoassay (EIA) using a broadly specific antiserum that bound to all PG tracers. Depending on the tested compounds inhibitory effect, the concentration of PGF2α in each well varied and was inversely proportional to the amount of PG tracers that was able to bind to the antiserum. PG tracers-antiserum complex was left to bind to the mouse monoclonal anti-rabbit antibody that has been coated to the well during the 18 hours incubation. Ellman's reagent was added to give distinct yellow coloration to the products from this enzymatic reaction, which absorbed strongly at 412 nm. The intensity of the color was proportional to the amount of PG tracers-antiserum complex bound to the well, which was inversely proportional to the concentration of PGF2α present.
(§3) The inhibitory activity of tested compounds was determined based on IC50 values whereas the selectivity was based on their selectivity indices (SI), which defined as COX-1 IC50/COX-2 IC50. In the assay system, indomethacin was used as non-selective COX inhibitor standard while NS-398 was used as COX-2 selective inhibitor standard.

human recombinant COX-2 = target: T2, human recombinant COX-2 (Homo sapiens, UniProt P35354); assay: COX Inhibitor Screening Assay, COX-2 (EIA of PGF2α); type: biochemical; conditions: for IC50: human recombinant COX-2, Cayman COX inhibitor screening assay kit; for SI (selectivity index, COX-1 IC50/COX-2 IC50): ratio COX-1 IC50/COX-2 IC50; for selective inhibition against COX-2: statement in words, COX-2 versus COX-1
T2 construct: purchased Cayman Chemical, USA 560131
T2 sequence (P35354 18-604): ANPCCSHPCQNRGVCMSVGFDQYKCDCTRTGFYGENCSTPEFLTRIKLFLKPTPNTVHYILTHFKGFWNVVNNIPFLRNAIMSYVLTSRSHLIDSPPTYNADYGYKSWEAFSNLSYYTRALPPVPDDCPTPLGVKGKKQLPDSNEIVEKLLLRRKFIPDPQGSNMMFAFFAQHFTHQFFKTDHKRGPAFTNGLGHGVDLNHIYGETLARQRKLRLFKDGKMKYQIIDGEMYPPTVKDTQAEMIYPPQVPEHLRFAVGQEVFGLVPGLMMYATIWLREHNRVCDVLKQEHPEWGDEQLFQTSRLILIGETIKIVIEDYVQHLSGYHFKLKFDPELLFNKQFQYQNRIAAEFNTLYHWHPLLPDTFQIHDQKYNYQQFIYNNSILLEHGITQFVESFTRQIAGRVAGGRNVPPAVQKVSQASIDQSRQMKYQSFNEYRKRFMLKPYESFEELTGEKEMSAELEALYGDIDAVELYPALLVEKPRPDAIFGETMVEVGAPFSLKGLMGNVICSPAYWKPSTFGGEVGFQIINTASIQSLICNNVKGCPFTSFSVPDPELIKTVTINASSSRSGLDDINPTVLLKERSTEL
Description: as §1, §2, §3

IC50 (ovine COX-1) [µM]	IC50 (human recombinant COX-2) [µM]	SI (selectivity index, COX-1 IC50/COX-2 IC50) (human recombinant COX-2)	selective inhibition against COX-2 (human recombinant COX-2)	SMILES
203	42.2	4.81	mild selective inhibition	Cc1sc2nc(Cc3ccc(F)cc3)[nH]c(=O)c2c1C [Compound 4a, 2-(4-Fluorobenzyl)-5,6-dimethylthieno[2,3-d]pyrimidin-4(3H)-one]
586	143	4.11	mild selective inhibition	COc1ccc(Cc2nc3sc(C)c(C)c3c(=O)[nH]2)cc1 [Compound 4b, 2-(4-Methoxybenzyl)-5,6-dimethylthieno[2,3-d]pyrimidin-4(3H)-one]
112	103	1.08	mild selective inhibition	Cc1sc2nc(NC(=O)c3ccc(F)cc3)[nH]c(=O)c2c1C [Compound 5a, N-(5,6-Dimethyl-4-oxo-3,4-dihydrothieno[2,3-d]pyrimidin-2-yl)-4-fluorobenzamide]
21.8	189	0.12	mild selective inhibition	Cc1sc2nc(NC(=O)c3ccccc3C(F)(F)F)[nH]c(=O)c2c1C [Compound 5b, N-(5,6-dimethyl-4-oxo-3,4-dihydrothieno[2,3-d]pyrimidin-2-yl)-2-(trifluoromethyl)benzamide]
